Experimental data published in ChEMBL document CHEMBL1201862, “PubChem BioAssay data set” (2004).
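96-well plates; 48 h exposure; 5 concentrations. Endpoints by linear interpolation between flanking doses. Not reached: highest tested concentration assigned. GI50 is the concentration that inhibits growth by half.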 The source made the active and inactive calls. No stated cut-off is given here; in the data, active = GI50 up to about 1.1 µM and inactive = higher.

Legend:
Test in all cases: inhibition of tumour cell growth, NCI panel, 48 h
SK-MEL-28 = system: SK-MEL-28
SF-539 = system: SF-539
NCI-H226 = system: NCI-H226
SK-MEL-5 = system: SK-MEL-5
RPMI-8226 = system: RPMI-8226
RXF 393 = system: RXF 393
UACC-62 = system: UACC-62
T47D = system: T47D
UACC-257 = system: UACC-257
HCT-15 = system: HCT-15
TK-10 = system: TK-10
SNB-19 = system: SNB-19
HT-29 = system: HT-29
NCI/ADR-RES = system: NCI/ADR-RES
CAKI-1 = system: CAKI-1
KM12 = system: KM12
SNB-75 = system: SNB-75

SMILES | GI50 (SK-MEL-28) | GI50 (SF-539) | GI50 (NCI-H226) | GI50 (SK-MEL-5) | GI50 (RPMI-8226) | GI50 (RXF 393) | GI50 (UACC-62) | GI50 (T47D) | GI50 (UACC-257) | GI50 (HCT-15) [µM] | GI50 (TK-10) | GI50 (SNB-19) | GI50 (HT-29) | GI50 (NCI/ADR-RES) | GI50 (CAKI-1) | GI50 (KM12) | GI50 (SNB-75)
CC1=CC(=O)C2=C(C)CCC3C(C)C(=O)OC3C12 (configuration not stated) | > 100 µM (inactive) | > 100 µM (inactive) | > 100 µM (inactive) | > 100 µM (inactive) | > 100 µM (inactive) | > 100 µM (inactive) | > 100 µM (inactive) | > 100 µM (inactive) | > 100 µM (inactive) | > 100 | > 100 µM (inactive) | > 100 µM (inactive) | > 100 µM (inactive) | > 100 µM (inactive) | > 100 µM (inactive) | > 100 µM (inactive) | –
COC(=NC(C)C)NC(C)C | > 100 µM (inactive) | > 100 µM (inactive) | > 100 µM (inactive) | > 100 µM (inactive) | > 100 µM (inactive) | – | > 100 µM (inactive) | > 100 µM (inactive) | – | > 100 | > 100 µM (inactive) | > 100 µM (inactive) | – | > 100 µM (inactive) | – | – | > 100 µM (inactive)
CNC(=O)OCC1=C(COC(=O)NC)CN(c2ccccc2)C1 | > 100 µM (inactive) | > 100 µM (inactive) | > 100 µM (inactive) | > 100 µM (inactive) | > 100 µM (inactive) | > 100 µM (inactive) | > 100 µM (inactive) | > 100 µM (inactive) | > 100 µM (inactive) | > 100 | > 100 µM (inactive) | > 100 µM (inactive) | > 100 µM (inactive) | > 100 µM (inactive) | – | > 100 µM (inactive) | > 100 µM (inactive)
O=C1CSC(c2c[nH]c3ccccc23)N1c1ccc(Cl)cc1Cl (configuration not stated) | > 100 µM (inactive) | > 100 µM (inactive) | – | > 100 µM (inactive) | > 100 µM (inactive) | > 100 µM (inactive) | > 100 µM (inactive) | > 100 µM (inactive) | > 100 µM (inactive) | > 100 | > 100 µM (inactive) | > 100 µM (inactive) | > 100 µM (inactive) | > 100 µM (inactive) | – | > 100 µM (inactive) | 0.865 µM (active)
Nc1cc(CO)cc(Nc2c3ccccc3nc3occc23)c1 | 36.4 µM (inactive) | 24.8 µM (inactive) | 29.1 µM (inactive) | 23.1 µM (inactive) | 26.5 µM (inactive) | – | 20.8 µM (inactive) | 29.6 µM (inactive) | 42.6 µM (inactive) | 25.6 | 52.6 µM (inactive) | > 100 µM (inactive) | 6.76 µM (inactive) | 22.4 µM (inactive) | 28.6 µM (inactive) | 33.8 µM (inactive) | –
CCOC(=O)c1c(N)sc2c1C(C(=O)OCC)CCC2 (configuration not stated) | > 100 µM (inactive) | – | > 100 µM (inactive) | 98.2 µM (inactive) | > 100 µM (inactive) | > 100 µM (inactive) | > 100 µM (inactive) | 66.5 µM (inactive) | > 100 µM (inactive) | > 100 | > 100 µM (inactive) | > 100 µM (inactive) | > 100 µM (inactive) | – | – | > 100 µM (inactive) | > 100 µM (inactive)
COC(=O)c1ccc(CN2CCc3c([nH]c4ccccc34)C2CO)o1 (configuration not stated) | > 10 µM (inactive) | – | – | > 10 µM (inactive) | > 10 µM (inactive) | > 10 µM (inactive) | > 10 µM (inactive) | > 10 µM (inactive) | > 10 µM (inactive) | > 10 | > 10 µM (inactive) | – | > 10 µM (inactive) | – | > 10 µM (inactive) | > 10 µM (inactive) | > 10 µM (inactive)
O=C(c1cccs1)N(C(=O)N1CCN(c2ccccc2)CC1)S(=O)(=O)c1ccccc1 | 22.4 µM (inactive) | 17.9 µM (inactive) | 19.8 µM (inactive) | 17 µM (inactive) | – | – | 17.6 µM (inactive) | 12.7 µM (inactive) | 23.8 µM (inactive) | 28.5 | 31.8 µM (inactive) | 27 µM (inactive) | 30.5 µM (inactive) | 24 µM (inactive) | 21.2 µM (inactive) | 31.4 µM (inactive) | 14.2 µM (inactive)
C/C=C1/CN2CCC34c5ccccc5N(C)C23C2CC1C4(C(=O)OC)C(OC(C)=O)O2 (configuration not stated) | > 100 µM (inactive) | > 100 µM (inactive) | > 100 µM (inactive) | > 100 µM (inactive) | > 100 µM (inactive) | – | > 100 µM (inactive) | > 100 µM (inactive) | > 100 µM (inactive) | > 100 | > 100 µM (inactive) | > 100 µM (inactive) | > 100 µM (inactive) | > 100 µM (inactive) | > 100 µM (inactive) | > 100 µM (inactive) | > 100 µM (inactive)
N=c1c2ccccc2nc2oc3ccc(Cl)cc3n12 | 25.2 µM (inactive) | 15.5 µM (inactive) | 17.8 µM (inactive) | 37.8 µM (inactive) | 4.4 µM (inactive) | 11.9 µM (inactive) | 37.7 µM (inactive) | – | > 100 µM (inactive) | 48 | 20 µM (inactive) | 8.22 µM (inactive) | 20.3 µM (inactive) | 48.3 µM (inactive) | 11.9 µM (inactive) | > 100 µM (inactive) | 2.75 µM (inactive)
COC(=O)C1=C(\c2ccccc2)c2ccccc2C(=O)N(C2CCCCC2)/C=C\1 | 17.9 µM (inactive) | 24 µM (inactive) | 18.2 µM (inactive) | 11.5 µM (inactive) | – | – | – | – | 12.5 µM (inactive) | 24.1 | 41.3 µM (inactive) | 29 µM (inactive) | 21.9 µM (inactive) | 26.5 µM (inactive) | 20.9 µM (inactive) | 13.9 µM (inactive) | 65.6 µM (inactive)
CON(C)C(=O)C1CCCO1 (configuration not stated) | > 100 µM (inactive) | > 100 µM (inactive) | > 100 µM (inactive) | 67 µM (inactive) | 68.7 µM (inactive) | – | > 100 µM (inactive) | > 100 µM (inactive) | 57.5 µM (inactive) | > 100 | > 100 µM (inactive) | > 100 µM (inactive) | > 100 µM (inactive) | > 100 µM (inactive) | > 100 µM (inactive) | > 100 µM (inactive) | > 100 µM (inactive)
c1ccc(C2=NCCc3cc4c(cc32)OCO4)cc1 | > 100 µM (inactive) | > 100 µM (inactive) | – | > 100 µM (inactive) | – | > 100 µM (inactive) | > 100 µM (inactive) | > 100 µM (inactive) | > 100 µM (inactive) | – | > 100 µM (inactive) | > 100 µM (inactive) | – | > 100 µM (inactive) | > 100 µM (inactive) | > 100 µM (inactive) | –
O=C1Cc2cn[nH]c2-c2ccccc2N1 | 63.1 µM (inactive) | 38.8 µM (inactive) | > 75.9 µM (inactive) | 26.4 µM (inactive) | 17.1 µM (inactive) | 28.2 µM (inactive) | 22.9 µM (inactive) | 36 µM (inactive) | 23.5 µM (inactive) | 23.8 | 30.2 µM (inactive) | > 68.2 µM (inactive) | 34.9 µM (inactive) | 38.4 µM (inactive) | – | 33.2 µM (inactive) | 79.3 µM (inactive)
C=CC(Br)(CBr)CCC1OC1(C)C (configuration not stated) | 16.3 µM (inactive) | 19.5 µM (inactive) | 19.8 µM (inactive) | 14.2 µM (inactive) | 20.4 µM (inactive) | 9.23 µM (inactive) | – | – | 14.6 µM (inactive) | – | 20.2 µM (inactive) | 17.3 µM (inactive) | 17.4 µM (inactive) | 23.5 µM (inactive) | 19.5 µM (inactive) | 17.1 µM (inactive) | 17.2 µM (inactive)
CC12c3c4cc(Br)cc3Oc3cc(Br)cc(c31)Oc1cc(Br)cc(c12)O4 | 30.5 µM (inactive) | 34.6 µM (inactive) | 11.2 µM (inactive) | 27.6 µM (inactive) | 19.4 µM (inactive) | – | 27.7 µM (inactive) | 28.1 µM (inactive) | 36.9 µM (inactive) | 41.4 | 41.1 µM (inactive) | > 100 µM (inactive) | 76.9 µM (inactive) | 19.8 µM (inactive) | – | 58.5 µM (inactive) | 15.5 µM (inactive)
O=C(O)C(O)c1ccc(F)cc1 (configuration not stated) | > 100 µM (inactive) | – | – | – | > 100 µM (inactive) | > 100 µM (inactive) | > 100 µM (inactive) | > 100 µM (inactive) | > 100 µM (inactive) | > 100 | > 100 µM (inactive) | > 100 µM (inactive) | > 100 µM (inactive) | > 100 µM (inactive) | > 100 µM (inactive) | > 100 µM (inactive) | > 100 µM (inactive)
CC1(C)CC(=O)C(=CNC(=S)c2ccccc2)C(=O)C1 | > 100 µM (inactive) | > 100 µM (inactive) | > 100 µM (inactive) | > 100 µM (inactive) | – | – | > 100 µM (inactive) | – | > 100 µM (inactive) | > 100 | > 100 µM (inactive) | > 100 µM (inactive) | > 100 µM (inactive) | > 100 µM (inactive) | > 100 µM (inactive) | > 100 µM (inactive) | > 100 µM (inactive)
OCC(O)COCn1cc(Cn2ncc3c(NCc4ccccc4)ncnc32)nn1 (configuration not stated) | > 100 µM (inactive) | > 100 µM (inactive) | > 100 µM (inactive) | > 100 µM (inactive) | > 100 µM (inactive) | – | > 100 µM (inactive) | > 100 µM (inactive) | > 100 µM (inactive) | > 100 | > 100 µM (inactive) | > 100 µM (inactive) | > 100 µM (inactive) | > 100 µM (inactive) | > 100 µM (inactive) | > 100 µM (inactive) | –
COc1ccc(/C=C2\CCCc3ccccc3C2=O)cc1 | 3.83 µM (inactive) | 0.287 µM (active) | 0.116 µM (active) | 0.102 µM (active) | 0.411 µM (active) | – | 0.0292 µM (active) | – | 3.13 µM (inactive) | 0.0723 | 9.06 µM (inactive) | 0.36 µM (active) | 0.0849 µM (active) | 0.0416 µM (active) | 2.82 µM (inactive) | 0.158 µM (active) | 0.0649 µM (active)
